Source: PMC4686731, “Screening of Pharmacologically Active Small Molecule Compounds Identifies Antifungal Agents Against Candida Biofilms” (Frontiers in Microbiology, 2015)
In brackets after ≈: the same amount, converted by molar mass. Like-named read-outs stand apart in the source and are kept apart here.

How the values were obtained:
[1] = test system: C. tropicalis ATCC13803 biofilm; experiment: AST, biofilm mode; type: cell-based; conditions: Candida tropicalis, read-out: Minimum inhibitory concentration (MIC)
Method: (§1) The in vitro susceptibility of well-characterized wild-type C. albicans strain SC5314, which was provided by Prof. N.A.R. Gow (University of Aberdeen, Aberdeen, UK) was tested against 1280 compounds from the Library of Pharmacologically Active Compounds (LOPAC^1280TM, Sigma–Aldrich, USA). The screen was performed with C. albicans SC5314, and hits were further confirmed with the type strains C. dubliniensis MYA 577, C. glabrata ATCC 2001, C. kusei ATCC 6258, C. palapsilosis ATCC 22019, and C. tropicalis ATCC13803.
(§2) To investigate the antifungal effects of the hit compounds, ASTs were conducted using broth microdilution assays with high cell densities of the planktonic mode, adhesion phase and biofilm mode against Candida strains (C. albicans, C. dubliniensis, C. glabrata, C. kusei, C. palapsilosis, and C. tropicalis). First, high density cell (1 × 10^7 cells/mL) suspensions were added to the RPMI medium containing each hit compound (10–1000 μM) in 96-well plates and incubated at 37°C for 24 h. Next, the 50% minimum inhibitory concentrations (MICs) of high-density Candida planktonic cultures were determined using the CellTiter-Glo luminescent cell viability kit, as described above. The antifungal effects of the hit compounds were also evaluated in the adhesion phase and the biofilm mode, in the same manner as the planktonic mode. Candida biofilms were produced as described previously ([Jin et al., 2004]). In brief, Candida cells were grown on SDA at 37°C for 18 h. A loopful of the yeast culture was then inoculated into yeast nitrogen base (YNB) (Difco, USA) medium supplemented with 50 mM glucose. After overnight broth culture in a rotary shaker at 75 rpm, the cells were washed twice with 20 mL of PBS (pH 7.2, 0.1 M). The yeast cells were re-suspended in YNB supplemented with 100 mM glucose and adjusted to an optical density of 0.38 (1 × 10^7 cells/mL) at 520 nm. This standardized cell suspension was used immediately to form biofilms in the wells of 96-well polystyrene culture plates (Iwaki, Tokyo, Japan). First, the cells were incubated for 90 min at 37°C in a shaker at 75 rpm to allow yeast adherence to the well surface (adhesion phase), before the medium was aspirated and each well was washed once with PBS to remove non-adherent cells. YNB containing 100 mM glucose was then pipetted into each well and the plate was incubated at 37°C in a shaker at 75 rpm for 24 h. Non-adherent cells were removed by pipetting and the biofilms were washed twice with PBS. Following this biofilm growth phase, microscopic examination of the cultures was performed to exclude contamination. These ASTs were repeated on three different occasions.

[2] = test system: C. glabrata ATCC 2001 biofilm; experiment: AST, biofilm mode; type: cell-based; conditions: Nakaseomyces glabratus, read-out: Minimum inhibitory concentration (MIC)
Method: as §1, §2

[3] = test system: C. palapsilosis ATCC 22019 biofilm; experiment: AST, biofilm mode; type: cell-based; conditions: read-out: Minimum inhibitory concentration (MIC)
Method: as §1, §2

[4] = test system: C. kusei ATCC 6258 biofilm; experiment: AST, biofilm mode; type: cell-based; conditions: read-out: Minimum inhibitory concentration (MIC)
Method: as §1, §2

[5] = test system: human gingival fibroblast (hGF) cells; experiment: Cytotoxicity, WST-1 cell counting assay
Method: Primary human gingival fibroblast (hGF) cultures were established from discarded healthy gingival tissues after surgery with the informed consent of the donors ([Nikawa et al., 2006]). In brief, the gingival tissue specimens were treated overnight with 0.025% trypsin and 0.02% EDTA at 4°C. After trypsin neutralization, the lamina propria mucosae were separated from the epithelial layer and minced into pieces in a plastic tissue culture dish, and then maintained in Dulbecco’s modified Eagle medium (Nacalai Tesque, Kyoto, Japan) supplemented with 10% FBS, 100 U/mL penicillin, […] and 250 ng/mL amphotericin B (Nacalai Tesque, Kyoto, Japan). After the fibroblasts had migrated out of the tissue, the tissues were removed and the cells were cultured until they reached confluence. The cells were then seeded onto 96-well tissue culture plates (500 cells per well) and the culture medium was exchanged with fresh growth medium containing the hit compounds (0.98–1000 μM). The cells were cultured continuously and the culture medium containing the hit compounds was renewed every other day. The number of cells was evaluated using the WST-1 cell counting assay (Dojindo Laboratories, Kumamoto, Japan), as described previously ([Hamada et al., 2007]). […] All the experiments were performed using three samples for each condition in triplicate.
To evaluate the safety for clinical use, we tested the cytotoxic effects of the hit compounds using human cell cultures. We used hGF cells because of their ubiquitous nature and their widespread use in cytotoxicity testing ([Egusa et al., 2009]; [LaFleur et al., 2011]). The hGF cells were grown in 96-well plates and exposed to increasing doses (two-fold increments) of each hit compound for 4 days. The hGF metabolic activity was measured every other day and used as an indicator of cell viability.

[6] = test system: C. albicans strain SC5314; experiment: High-throughput screening (HTS) with antifungal susceptibility test, CellTiter-Glo ATP read-out; type: cell-based, Candida albicans; conditions: for inhibition at 10 µM: Candida albicans, SC5314, 24 h; for fungistatic or fungicidal effect on C. albicans: HTS; for percent inhibition of the metabolic activity (ATP level) of C. albicans: 10 µM
Method: as §1
High-Throughput Screening was conducted using ASTs, according to the standard Clinical and Laboratory Standard Institute (CLSI) method ([Watamoto et al., 2009]). Inocula from 24-h yeast cultures on Sabouraud’s dextrose agar (SDA) (Gibco, UK) were adjusted to a turbidity equivalent to a 0.5 McFarland standard at 520 nm using a spectrophotometer. The suspension was diluted further with RPMI 1640 medium (Gibco, UK) to yield an inoculum concentration of 0.5 × 10^3 to 2.5 × 10^3 cells/mL. C. albicans was incubated with small-molecule compounds (10 μM) from LOPAC^1280TM, which total volume was 150 μL, in 96-well plates at 37°C for 24 h to evaluate the antifungal effects. After incubation, the viability of the fungal cells was determined using the CellTiter-Glo luminescent cell viability kit (Promega, USA). The CellTiter-Glo reagent (150 μL) was added to the medium and incubated for 15 min at room temperature with shaking at 900 rpm. The luminescent signals were detected using a luminometer (GloMax Discover System, Promega, USA). The resulting signal intensity corresponds to ATP amounts and thus to the number of viable microbial cells upon drug exposure ([Stylianou et al., 2014]). In all 96-well plates, 100 and 0% growth controls were included as microbes plus dimethyl sulfoxide (0.1%) and microbes plus amphotericin B (100 μM), respectively. All assays were performed at least as two biological replicates in triplicate. The ATP level of C. albicans cells, which corresponded to the cell metabolic activity and viability, was calculated for each compound using the following equation (Figure 1A).
Percentageinhibition=100 × 1-{(experimental-positivecontrolaverage)/(negativecontrolaverage-positivecontrolaverage)}
Wells were scored as hits if the percentage inhibition was >50%. Hit compounds were evaluated further to assess their antifungal effects.

[7] = ATCC13803, biofilm mode (24 h biofilm)
[8] = ATCC2001, biofilm mode (24 h biofilm)
[9] = compound 10 μM, 0.5 × 10^3 to 2.5 × 10^3 cells/mL, 37°C, 24 h, read-out: percent inhibition of the metabolic activity (ATP level) of C. albicans
[10] = compound 10 μM, 0.5 × 10^3 to 2.5 × 10^3 cells/mL, 37°C, 24 h
[11] = hGF cells, 4 days exposure, 50% reduction in cell number, WST-1

SMILES | MIC [1, 7] | MIC [2, 8] | MIC ([3]; biofilm mode (24 h biofilm)) | MIC ([4]; biofilm mode (24 h biofilm)) | cytotoxicity to hGF cells (in words) [5] | Cytotoxic concentration ([5]; human, 4 days) | inhibition at 10 µM [6, 9] | fungistatic or fungicidal effect on C. albicans ([6]; compound 10 μM) | percent inhibition of the metabolic activity (ATP level) of C. albicans [6, 10] | cytotoxicity to hGF cells (in words) ([5]; hGF cells) | Cytotoxic concentration [5, 11] | MIC ([1]; ATCC13803, 24 h) | MIC ([2]; ATCC2001, 24 h) | MIC ([3]; 24 h) | MIC ([4]; 24 h) | inhibition at 10 µM ([6]; read-out: percent inhibition of the metabolic activity (ATP level) of C. albicans, compound 10 μM, 0.5 × 10^3 to 2.5 × 10^3 cells/mL, 37°C, 24 h)
Cc1ccc(S(=O)(=O)/C=C/C#N)cc1 [Bay11-7082] | 62.5 µM (≈ 13 µg/mL) | 62.5 µM (≈ 13 µg/mL) | 15.6 µM (≈ 3.23 µg/mL) | 62.5 µM (≈ 13 µg/mL) | cytotoxic to hGF cells at low concentrations | 7.81 µM | 100% | strong fungicidal effects | > 90% | – | – | – | – | – | – | –
CC(C)(C)c1ccc(S(=O)(=O)/C=C/C#N)cc1 [Bay11-7085] | 62.5 µM (≈ 15.6 µg/mL) | 62.5 µM (≈ 15.6 µg/mL) | 15.6 µM (≈ 3.89 µg/mL) | 62.5 µM (≈ 15.6 µg/mL) | – | – | 100% | strong fungicidal effects | > 90% | cytotoxic to hGF cells at low concentrations | 7.81 µM | – | – | – | – | –
Cc1c2ccncc2c(C)c2c1[nH]c1ccccc12 [Ellipticine] | 250 µM (≈ 61.6 µg/mL) | 62.5 µM (≈ 15.4 µg/mL) | 250 µM (≈ 61.6 µg/mL) | 250 µM (≈ 61.6 µg/mL) | – | – | 100% | strong fungicidal effects | > 90% | cytotoxic to hGF cells at low concentrations | 1.95 µM | – | – | – | – | –
C[n+]1cc2c3c(ccc2c2ccc4cc5c(cc4c21)OCO5)OCO3 [Sanguinarine, Sanguinarine chloride hydrate] | – | – | – | – | – | – | – | strong fungicidal effects | > 90% | cytotoxic to hGF cells at low concentrations | 0.73 µM | 31.3 µM | 15.6 µM | 7.8 µM | 31.3 µM | 100%
